# According to US20230416248A1, “COMPOUNDS AND USES THEREOF” (Foghorn Therapeutics Inc., priority 2020, published 2023):
# Like-named read-outs stand apart in the source and are kept apart here.
# Tests used:
# [1] = tested on: Uveal melanoma cell lines (92-1, MP41, MP38, MP46) and Non-small cell lung cancer cells (NCIH1299); assay: 3-day cell growth, Cell-titer glow (Example 12); assay type: cell-based; settings: FIG. 5, 3 days, 0 to 10 micromolar
# Procedure: Procedure: Uveal melanoma cell lines (92-1, MP41, MP38, MP46) and Non-small cell lung cancer cells (NCIH1299) were plated into 96 well plates with growth media (see Table 6). BRG1/BRM ATPase inhibitor, compound 67, was dissolved in DMSO and added to the cells in a concentration gradient from 0 to 10 micromolar at the time of plating. Cells were incubated at 37° C. for 3 days. After three days of treatment, cell growth was measured with Cell-titer glow (Promega), and luminescence was read on an Envision plate reader (Perkin Elmer).
# [2] = tested on: Uveal melanoma cell lines, 92-1 or MP41; assay: 3-day growth inhibition compared with clinical PKC and MEK inhibitors, Compound B (Example 13); assay type: cell-based; settings: FIG. 6A and 6B
# Procedure: Procedure: Uveal melanoma cell lines, 92-1 or MP41, were plated in 96 well plates in the presence of growth media (see Table 6). BAF ATPase inhibitor (Compound B), PKC inhibitor (LXS196; MedChemExpress), and MEK Inhibitor (Selumetinib; Selleck Chemicals) were dissolved in DMSO and added to the cells in a concentration gradient from 0 to 10 micromolar at the time of plating. Cells were incubated at 37° C. for 3 days. After three days of treatment, cell growth was measured with Cell-titer glow (Promega), and luminescence was read on an Envision plate reader (Perkin Elmer).
# [3] = tested on: parental MP41 cells; assay: 7-day growth inhibition assay, parental cells (Example 14); assay type: cell-based; settings: FIG. 7B, 7-day assay
# Procedure: (§1) Procedure: MP41 uveal melanoma cells were made resistant to the PKC inhibitor (LXS196; MedChemExpress), by long-term culture in growth media (see Table 6) containing increasing concentrations of the compound, up to 1 micromolar. After 3 months, sensitivity of the parental MP41 cells and the PKC inhibitor (PKCi)-resistant cells to the PKC inhibitor (LXS196) or the BRG1/BRM ATPase inhibitor (Compound B) was tested in a 7-day growth inhibition assay as described above in Example 9.
# [4] = tested on: PKC inhibitor (PKCi)-resistant MP41 uveal melanoma cells; assay: 7-day growth inhibition assay, PKC inhibitor-resistant cells (Example 14); assay type: cell-based
# Procedure: as §1
# [5] = tested on: Uveal melanoma cell lines, 92-1 or MP41; assay: 3-day growth inhibition compared with clinical PKC and MEK inhibitors, Compound A (Example 8); assay type: cell-based; settings: FIG. 2A and 2B
# Procedure: Procedure: Uveal melanoma cell lines, 92-1 or MP41, were plated in 96 well plates in the presence of growth media (see Table 5). […] Cells were incubated at 37 degrees Celsius for 3 days. After three days of treatment, cell growth was measured with Cell-titer glow (Promega), and luminescence was read on an Envision plate reader (Perkin Elmer).
# [6] = biological target: T1, BRM (Homo sapiens, UniProt P51531); assay: ATPase catalytic activity of BRM, ADP-Glo in vitro biochemical assay; settings: for IC50: 30 nM BRM, 400 μM ATP; for Ratio* (BRG1 IC50 (μM) divided by BRM IC50 (μM)): selectivity ratio BRG1 IC50 / BRM IC50
# T1 construct: made in house; host or cells: High Five insect cells
# Method in brief: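 Recombinant BRM (30 nM) hydrolysed 400 μM ATP with 20 nM salmon sperm DNA in pH 8 Tris buffer containing 20 mM MgCl2, 50 mM NaCl, 0.1% Tween-20 and 1 mM DTT, 1 h at room temperature. ADP formed was quantified by ADP-Glo luminescence.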
# [7] = biological target: T2, BRG-1 (Homo sapiens, UniProt P51532); assay: ATPase catalytic activity of BRG-1, ADP-Glo in vitro biochemical assay; settings: 30 nM BRG-1, 400 μM ATP, read-out: BRG1 IC50
# T2 construct: made in house; host or cells: High Five insect cells
# Method in brief: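 BRG-1 ATPase activity was measured by ADP-Glo. Unconsumed ATP was depleted for 40 min at room temperature, then ADP was converted to ATP for 60 min and read as luminescence.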
# [8] = ATPase catalytic activity, ADP-Glo
# T1 sequence (P51531 whole entry): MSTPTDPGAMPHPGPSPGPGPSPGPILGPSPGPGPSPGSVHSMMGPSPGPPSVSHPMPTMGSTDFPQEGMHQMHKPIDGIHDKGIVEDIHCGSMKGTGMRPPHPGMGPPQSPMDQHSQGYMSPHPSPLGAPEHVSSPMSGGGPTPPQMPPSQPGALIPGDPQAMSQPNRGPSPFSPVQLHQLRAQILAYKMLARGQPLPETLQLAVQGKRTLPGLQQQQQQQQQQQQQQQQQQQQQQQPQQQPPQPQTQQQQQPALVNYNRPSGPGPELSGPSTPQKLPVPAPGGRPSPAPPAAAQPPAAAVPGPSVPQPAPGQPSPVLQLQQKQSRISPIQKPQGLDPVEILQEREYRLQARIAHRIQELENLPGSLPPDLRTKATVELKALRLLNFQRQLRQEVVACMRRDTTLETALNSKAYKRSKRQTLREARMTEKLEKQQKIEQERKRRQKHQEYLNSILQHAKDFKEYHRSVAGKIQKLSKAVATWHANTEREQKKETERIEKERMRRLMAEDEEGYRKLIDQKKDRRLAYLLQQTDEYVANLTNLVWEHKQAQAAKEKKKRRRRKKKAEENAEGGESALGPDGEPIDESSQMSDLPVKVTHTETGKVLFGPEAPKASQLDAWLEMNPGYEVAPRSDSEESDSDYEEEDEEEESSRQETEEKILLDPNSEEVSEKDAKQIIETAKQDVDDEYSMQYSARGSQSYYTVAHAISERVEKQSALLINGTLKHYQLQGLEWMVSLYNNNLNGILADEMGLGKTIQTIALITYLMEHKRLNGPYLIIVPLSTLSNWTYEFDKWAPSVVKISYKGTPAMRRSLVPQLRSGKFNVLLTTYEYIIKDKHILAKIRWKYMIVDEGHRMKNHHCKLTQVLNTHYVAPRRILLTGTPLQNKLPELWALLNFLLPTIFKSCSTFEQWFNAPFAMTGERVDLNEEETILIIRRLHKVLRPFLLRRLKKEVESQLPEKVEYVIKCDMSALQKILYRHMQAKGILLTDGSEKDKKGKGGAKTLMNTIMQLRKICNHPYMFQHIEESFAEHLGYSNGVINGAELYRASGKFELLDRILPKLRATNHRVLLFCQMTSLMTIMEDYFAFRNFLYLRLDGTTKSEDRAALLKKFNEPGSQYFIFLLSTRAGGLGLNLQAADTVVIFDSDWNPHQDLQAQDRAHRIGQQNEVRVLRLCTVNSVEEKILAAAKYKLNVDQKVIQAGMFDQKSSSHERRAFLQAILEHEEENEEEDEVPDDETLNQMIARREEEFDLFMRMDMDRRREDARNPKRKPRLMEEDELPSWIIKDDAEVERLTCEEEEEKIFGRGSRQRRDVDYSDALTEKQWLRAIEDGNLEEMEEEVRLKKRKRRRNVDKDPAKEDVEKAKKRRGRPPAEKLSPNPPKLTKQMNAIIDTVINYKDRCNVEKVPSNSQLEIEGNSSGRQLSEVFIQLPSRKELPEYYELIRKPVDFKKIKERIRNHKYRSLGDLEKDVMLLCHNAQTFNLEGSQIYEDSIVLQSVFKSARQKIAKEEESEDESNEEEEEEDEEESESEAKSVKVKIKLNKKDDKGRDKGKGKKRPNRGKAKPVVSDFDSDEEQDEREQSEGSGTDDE
# T2 sequence (P51532 whole entry): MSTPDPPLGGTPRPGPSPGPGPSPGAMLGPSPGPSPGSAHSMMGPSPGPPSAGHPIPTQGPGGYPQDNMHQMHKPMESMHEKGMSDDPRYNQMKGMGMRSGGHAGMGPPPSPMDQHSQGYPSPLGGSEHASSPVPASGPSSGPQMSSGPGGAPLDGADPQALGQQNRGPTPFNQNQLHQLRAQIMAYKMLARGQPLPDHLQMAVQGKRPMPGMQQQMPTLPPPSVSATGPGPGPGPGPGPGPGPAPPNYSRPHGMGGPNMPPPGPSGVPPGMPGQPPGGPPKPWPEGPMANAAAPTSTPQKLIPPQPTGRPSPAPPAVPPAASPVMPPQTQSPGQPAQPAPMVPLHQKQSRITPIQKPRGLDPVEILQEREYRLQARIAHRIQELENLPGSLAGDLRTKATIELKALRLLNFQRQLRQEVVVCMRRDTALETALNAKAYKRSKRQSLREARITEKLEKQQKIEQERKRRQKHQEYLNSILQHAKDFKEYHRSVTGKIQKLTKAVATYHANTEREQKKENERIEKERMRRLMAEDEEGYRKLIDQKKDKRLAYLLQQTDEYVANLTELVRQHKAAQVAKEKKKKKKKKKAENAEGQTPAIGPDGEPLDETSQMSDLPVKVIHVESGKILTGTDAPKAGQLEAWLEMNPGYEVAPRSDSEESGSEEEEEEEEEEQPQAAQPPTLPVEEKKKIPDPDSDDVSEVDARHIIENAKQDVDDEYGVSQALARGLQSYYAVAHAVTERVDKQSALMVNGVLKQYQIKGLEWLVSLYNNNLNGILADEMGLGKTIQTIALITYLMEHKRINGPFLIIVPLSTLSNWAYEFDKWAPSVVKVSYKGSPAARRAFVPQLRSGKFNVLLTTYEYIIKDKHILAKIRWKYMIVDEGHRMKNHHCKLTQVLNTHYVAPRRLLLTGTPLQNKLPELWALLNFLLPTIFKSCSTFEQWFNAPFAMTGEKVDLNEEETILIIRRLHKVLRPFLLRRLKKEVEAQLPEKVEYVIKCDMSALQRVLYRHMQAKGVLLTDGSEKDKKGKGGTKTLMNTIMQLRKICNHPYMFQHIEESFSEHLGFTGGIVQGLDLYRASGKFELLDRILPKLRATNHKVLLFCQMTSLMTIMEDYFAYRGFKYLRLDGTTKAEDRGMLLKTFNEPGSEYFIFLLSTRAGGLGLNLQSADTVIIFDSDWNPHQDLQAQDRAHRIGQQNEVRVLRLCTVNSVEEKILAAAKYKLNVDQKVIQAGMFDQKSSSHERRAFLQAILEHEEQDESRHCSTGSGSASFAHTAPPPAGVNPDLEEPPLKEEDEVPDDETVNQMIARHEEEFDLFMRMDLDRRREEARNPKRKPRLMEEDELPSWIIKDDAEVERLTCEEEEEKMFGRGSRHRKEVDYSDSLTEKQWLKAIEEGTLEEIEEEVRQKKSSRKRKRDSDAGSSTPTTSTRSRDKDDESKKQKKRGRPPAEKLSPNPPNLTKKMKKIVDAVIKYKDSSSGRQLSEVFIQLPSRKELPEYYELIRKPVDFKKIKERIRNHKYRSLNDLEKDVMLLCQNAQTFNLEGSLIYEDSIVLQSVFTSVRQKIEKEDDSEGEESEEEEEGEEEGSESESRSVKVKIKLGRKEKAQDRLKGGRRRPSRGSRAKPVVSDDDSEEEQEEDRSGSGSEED
IC50 ([6]; ADP-Glo ATPase assay) [nM],IC50 ([7]; ADP-Glo ATPase assay) [nM],"IC50 [6, 8] [nM]",Ratio* ([6]; ratio of BRG1 IC50 to BRM IC50),"IC50 [7, 8] [nM]",Ratio* (BRG1 IC50 (μM) divided by BRM IC50 (μM)) [6],Structure (SMILES),further results
10.7,126,–,–,–,–,COc1cc2c(cn1)CCCN2c1ccc2cnc(CNC(=O)c3ccc4c(c3)S(=O)(=O)CCOC4)cc2n1 [Compound 768],Ratio* ([6]; ratio BRG1 IC50 / BRM IC50): 11.76
35.2,243,–,–,–,6.92,O=C(NCc1cc2nc(-c3ccc4ccn(CC(F)F)c4n3)ccc2cn1)c1ccc2c(c1)S(=O)(=O)CCOC2 [Compound 140],–
9.3,255,–,–,–,–,COCc1ccc2c(c1F)N(c1ccc3cnc(CNC(=O)c4ccc5c(c4)S(=O)(=O)CCOC5)cc3n1)CCC2 [Compound 711],Ratio* ([6]; ratio BRG1 IC50 / BRM IC50): 27.53
25.3,239,–,–,–,9.45,CO[C@H](C)CN(C)c1cccc(-c2ccc3cnc(CNC(=O)c4ccc5c(c4)S(=O)(=O)CCOC5)cc3n2)n1 [Compound 55],–
18.9,247,–,–,–,13.08,CCN(CC)c1cccc(-c2ccc3cnc(CNC(=O)c4cc(F)c5c(c4)S(=O)(=O)CCOC5)cc3n2)n1 [Compound 62],–
224,1230,–,–,–,5.48,COC[C@@H](C)N(C)c1cccc(-c2ccc3cnc(CNC(=O)c4ccc5c(c4)S(=O)(=O)CCOC5)cc3n2)n1 [Compound 72],–
–,–,10.4,56.64,590,–,O=C(NCc1cc2nc(N3CCCc4ccc(C5CC5)nc43)ccc2cn1)c1ccc2c(c1)S(=O)(=O)CCOC2 [Compound 536],–
62.3,1070,–,–,–,17.23,O=C(NCc1cc2nc(-c3cccc(OC4CC4)n3)ccc2cn1)c1ccc2c(c1)S(=O)(=O)CCOC2 [Compound 241],–
–,–,66.9,8.32,557,–,O=C(NCc1cc2nc(N3CCCc4ccc(C(F)(F)F)nc43)ccc2cn1)c1ccc2c(c1)S(=O)(=O)CCOC2 [Compound 570],–
74.5,457,–,–,–,6.12,O=C(NCc1cc2nc(N3CCc4cccnc43)ccc2cn1)c1ccc2c(c1)S(=O)(=O)CCOC2 [Compound 47],–
19.4,376,–,–,–,–,O=C(NCc1cc2nc(N3CCOc4cc(C5(C(F)F)CC5)cnc43)ccc2cn1)c1ccc2c(c1)S(=O)(=O)CCOC2 [Compound 847],Ratio* ([6]; ratio BRG1 IC50 / BRM IC50): 19.41
–,–,21.4,12.29,263,–,O=C(NCc1cc2nc(N3CCOc4cc(C(F)F)ccc43)ccc2cn1)c1ccc2c(c1)S(=O)(=O)CCOC2 [Compound 520],–
–,–,36.7,4.71,173,–,C[C@H]1Cc2ccc(-c3ccc4cnc(CNC(=O)c5ccc6c(c5)S(=O)(=O)CCOC6)cc4n3)nc2N(C)C1 [Compound 662],–
22.1,254,–,–,–,11.50,O=C(NCc1cc2nc(-c3cccc(N4CCC(F)CC4)n3)ccc2cn1)c1ccc2c(c1)S(=O)(=O)CCOC2 [Compound 186],–
–,–,230,7.47,1720,–,COc1ccc2c(c1)CCN2c1ccc2cnc(CNC(=O)c3ccc4c(c3)S(=O)(=O)CCOC4)cc2n1 [Compound 653],–
–,–,156,3.32,517,–,CN1CCCCc2ccc(-c3ccc4cnc(CNC(=O)c5ccc6c(c5)S(=O)(=O)CCOC6)cc4n3)nc21 [Compound 569],–
–,–,7.8,14.57,114,–,COc1nc(-c2ccc3cnc(CNC(=O)c4ccc5c(c4)S(=O)(=O)CCOC5)cc3n2)ccc1C(F)F [Compound 399],–

# Further lines, the compound ahead of its results:
Structure (SMILES),IC50 ([6]; ADP-Glo ATPase assay) [nM],IC50 ([7]; ADP-Glo ATPase assay) [nM],"IC50 [6, 8] [nM]",Ratio* ([6]; ratio of BRG1 IC50 to BRM IC50),"IC50 [7, 8] [nM]",Ratio* (BRG1 IC50 (μM) divided by BRM IC50 (μM)) [6],further results
"CSCC[C@H](NC(=O)c1ccn(S(C)(=O)=O)c1)C(=O)Nc1nc(-c2cccc(-c3ccncc3)c2)cs1 [Compound B, (S)-1-(methylsulfonyl)-N-(4-(methylthio)-1-oxo-1-((4-(3-(pyridin-4-yl)phenyl)thiazol-2-yl)amino)butan-2-yl)-1H-pyrrole-3-carboxamide]",–,–,–,–,–,–,"growth inhibition in the uveal melanoma cell lines [1]: potent growth inhibition; onset of growth inhibition versus the clinical PKC and MEK inhibitors [2]: faster onset of growth inhibition; growth inhibition of uveal melanoma cells versus the clinical PKC and MEK inhibitors ([2]; 3 days, 0 to 10 micromolar): more potent effects on growth inhibition; growth inhibition of parental cell line [3]: strong growth inhibition; sensitivity of PKCi-resistant cells versus the parental MP41 cells ([4]; FIG. 7B): more sensitive; growth inhibition of PKCi-resistant cell line ([4]; FIG. 7B, 7-day assay): strong growth inhibition"
CSCC[C@H](NC(=O)c1ccc(N)cc1)C(=O)Nc1nc(-c2cccc(-c3ccncc3)c2)cs1 [Compound A],–,–,–,–,–,–,"onset of inhibition versus the clinical PKC and MEK inhibitors [5]: faster onset of inhibition; growth inhibition of uveal melanoma cells versus the clinical PKC and MEK inhibitors ([5]; 3 days, 0 to 10 micromolar): comparable growth inhibition"
"CC1(N)CCN(c2cccnc2NC(=O)c2nc(-c3ncccc3C(F)(F)F)cnc2N)CC1 [LXS196, reference compound]",–,–,–,–,–,–,tolerance of PKCi-resistant cells versus the parental MP41 cell line ([4]; FIG. 7A): could tolerate growth at higher concentrations
O=C(NCc1cc2nc(N3CCOc4cc(Cl)cc(F)c43)ccc2cn1)c1cc(F)c2c(c1)S(=O)(=O)CCOC2 [Compound 773],38.5,1170,–,–,–,–,Ratio* ([6]; ratio BRG1 IC50 / BRM IC50): 30.25
CO[C@H]1CCS(=O)(=O)c2cc(C(=O)NCc3cc4nc(-c5cccc(N6C[C@@H](C)O[C@@H](C)C6)n5)ccc4cn3)ccc2C1 [Compound 444],–,–,13,2.12,27.5,–,–
CCOc1cccc(-c2ccc3cnc(CNC(=O)c4cc(F)c5c(c4)S(=O)(=O)[C@@H](C)COC5)cc3n2)n1 [Compound 453],–,–,27.4,21.75,595,–,–
O=C(NCc1cc2nc(N3CCOc4cc(C5CCC5)cnc43)ccc2cn1)c1ccc2c(c1)S(=O)(=O)CCOC2 [Compound 753],14.2,203,–,–,–,–,Ratio* ([6]; ratio BRG1 IC50 / BRM IC50): 14.28
O=C(NCc1cc2nc(N3CCCc4cc5c(cc43)OCO5)ccc2cn1)c1ccc2c(c1)S(=O)(=O)CCOC2 [Compound 792],13.7,135,–,–,–,–,Ratio* ([6]; ratio BRG1 IC50 / BRM IC50): 9.88
COC[C@H](C)Nc1cccc(-c2ccc3cnc(CNC(=O)c4ccc(C(F)F)c(S(C)(=O)=O)c4)cc3n2)n1 [Compound 61],956,5000,–,–,–,5.23,–
O=C(NCc1cc2cc(-c3cccc(N4CCC4)n3)ccc2cn1)c1cnc2c(c1)S(=O)(=O)CCOC2 [Compound 256],49,426,–,–,–,8.69,–
Cc1ccc2c(n1)N(c1ccc3cnc(CNC(=O)c4ccc5c(c4)S(=O)(=O)CCCO5)cc3n1)CCC2 [Compound 538],–,–,114,14.67,1670,–,–
C[C@@H]1CN(c2ccnc(-c3ccc4cnc(CNC(=O)c5ccc6c(c5)S(=O)(=O)[C@@H](C)COC6)cc4c3)n2)C[C@H](C)O1 [Compound 708],52.9,907,–,–,–,–,Ratio* ([6]; ratio BRG1 IC50 / BRM IC50): 17.15
CO[C@@H]1CCS(=O)(=O)c2cc(C(=O)NCc3cc4nc(-c5cccc(N6C[C@@H](C)O[C@@H](C)C6)n5)ccc4cn3)ccc2C1 [Compound 446],–,–,11.2,2.83,31.7,–,–
